In publication PMC6717386, “Aspulvinone O, a natural inhibitor of GOT1 suppresses pancreatic ductal adenocarcinoma cells growth by interfering glutamine metabolism” (Cell Communication and Signaling : CCS, 2019):

Legend:
[1] = biological target: GOT1 (aspartate transaminase 1, glutamic-oxaloacetic transaminase 1) (Homo sapiens, UniProt P17174); test: microscale thermophoresis with labelled recombinant GOT1; supported by purified enzyme inhibition and kinetics, CETSA and DARTS; type: binding
murine GOT1 = biological target: T1, murine GOT1 (Mus musculus, UniProt P05201); test: microscale thermophoresis with labelled recombinant GOT1; supported by purified enzyme inhibition; type: binding
T1 construct: recombinant, C-terminal 6 His-tag
T1 sequence (P05201 2-413): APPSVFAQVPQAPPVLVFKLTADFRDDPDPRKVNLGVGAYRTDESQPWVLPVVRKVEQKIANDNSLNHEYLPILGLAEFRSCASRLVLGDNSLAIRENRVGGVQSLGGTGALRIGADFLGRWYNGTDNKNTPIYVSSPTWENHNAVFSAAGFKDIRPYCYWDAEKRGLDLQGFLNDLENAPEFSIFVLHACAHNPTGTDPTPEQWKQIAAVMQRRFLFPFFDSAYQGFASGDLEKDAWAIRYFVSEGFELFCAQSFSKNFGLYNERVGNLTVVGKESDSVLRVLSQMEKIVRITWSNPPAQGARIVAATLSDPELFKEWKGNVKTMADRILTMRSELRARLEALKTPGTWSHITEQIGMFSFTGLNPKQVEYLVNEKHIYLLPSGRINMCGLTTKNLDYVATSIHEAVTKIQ

Chain of GOT1 (aspartate transaminase 1, glutamic-oxaloacetic transaminase 1) (P17174 2-413): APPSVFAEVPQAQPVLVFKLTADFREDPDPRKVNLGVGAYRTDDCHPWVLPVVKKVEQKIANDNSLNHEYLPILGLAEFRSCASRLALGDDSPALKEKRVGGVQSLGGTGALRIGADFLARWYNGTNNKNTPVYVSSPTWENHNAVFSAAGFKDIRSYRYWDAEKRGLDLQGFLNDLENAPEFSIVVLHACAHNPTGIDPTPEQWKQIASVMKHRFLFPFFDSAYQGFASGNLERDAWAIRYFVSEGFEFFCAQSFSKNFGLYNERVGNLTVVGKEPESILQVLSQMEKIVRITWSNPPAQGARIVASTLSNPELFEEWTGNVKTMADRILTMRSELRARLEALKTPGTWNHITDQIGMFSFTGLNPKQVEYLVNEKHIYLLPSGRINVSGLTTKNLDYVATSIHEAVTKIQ

CC(C)=CCc1cc(/C=C2\OC(=O)C(c3cc(CC=C(C)C)c(O)cc3O)=C2O)ccc1O [AO, 3-[2,4-Dihydroxy-5-(3-methyl-2-buten-1-yl)phenyl]-4-hydroxy-5-[[4-hydroxy-3-(3-methyl-2-buten-1-yl)phenyl]methylene]-2(5H)-furanone] was tested, and the Kd [1] was 3.32 ± 1.18 µM and the Kd (murine GOT1) was 5.42 ± 1.36 µM.
